# In patent publication US9808434B2, “Compound for treating cancer and diabetes” (CITY OF HOPE, priority 2011, dated 2017):
# System: SK-MEL2
# Assay: Intracellular ATP production, luminescence kit
# Assay type: cell-based, human
# Settings: 5 μM, less than 1 h
# Method: ATP production from cells treated with test compounds were measured using the Luminescent ATP Detection Assay Kit. AMP, ATP and ADP were measured by UV-HPLC.
# One of the consequences of mitochondria uncoupling is decrease intracellular ATP production, leading to increased AMP:ATP ratio and triggering activation of the energy-sensitive enzyme AMPK. It has been previously shown that COH-SR4 indirectly activates AMPK in a time- and dose-dependent manner in both HepG2 cells and 3T3-adipocytes. […] In melanomas, mutation rates for BRAF NRAS and LKB1 are 50-70%, 5-30%, and 10%, respectively. […] AMPK activation may cause a cell cycle arrest associated with stabilization of p53 and the cyclin-dependent kinase inhibitors p21^WAF1 and p27^CIP1.
smiles,measurement,value
"O=C(Nc1cc(Cl)cc(Cl)c1)Nc1cc(Cl)cc(Cl)c1 [COH-SR4, 1,3-bis(3,5-dichlorophenyl) urea]",intracellular ATP production,rapid decline
